# Test results reported in patent US20190282692A1, “SELECTIVE LOCAL INHIBITION OF TNFR1-MEDIATED FUNCTIONS AT THE SITE OF ANTIGEN/ALLERGEN PRESENTATION” (priority 2012, published 2019).
# Several values for one entry are separate records, joined by “and”; a condition that tells them apart may be missing. Equal entries are not always repeated.
# How the values were obtained:
# IL-4 gene transcription = settings: read-out: concentration for 50% inhibition of IL-4 gene transcription; cited from earlier work
# NF-kappa B translocation = settings: read-out: concentration for 50% inhibition of NF-kappa B translocation; cited from earlier work
# [1] = tested on: CD4+ T cells purified from human peripheral blood; settings: cited from earlier work
# [2] = tested on: isolated rat cardiomyocytes; settings: cited from earlier work; for reproduction of the effects of in vivo NAC treatment (glutathione repletion, unmasking of TNFR2-mediated effects): 50 μmol/L; for protection against deleterious effects of TNF-alpha on contraction: preincubation 2-3 hours, 50 μM GSM or exogenously added NAC, cardiomyocytes from control rats
# [3] = cited from earlier work
# [4] = tested on: T cells purified from human peripheral blood; settings: 20 mM NAC, Con A 2.5 μg/ml, 40 hours; cited from earlier work
# left ventricle = settings: 3-day NAC treatment 120 mg/kg/day, 2-month post-myocardial infarction rats; cited from earlier work
# [5] = tested on: T cells purified from human peripheral blood; settings: 10 mM NAC, after two passages; cited from earlier work
# [6] = tested on: purified peripheral blood T cells; settings: cited from earlier work
# [7] = 8 days, cited from earlier work
# [8] = cited from earlier work; remark: listed apart in the source
# [9] = 600 mg to 1000 mg NAC three times daily orally, 4 weeks; cited from earlier work
# [10] = tested on: purified tonsillar B cells; settings: dose-dependent, significant with 0.5 mM, maximal with 20 mM NAC, 14 days; cited from earlier work
# [11] = tested on: purified tonsillar B cells; settings: 20 mM NAC; cited from earlier work
# resting T cells = resting T cells from seven donors, 3 day period, NAC 1 mM to 20 mM; cited from earlier work
# [12] = tested on: purified peripheral blood T cells; settings: 20 mM NAC, Con A 10 μg/ml; cited from earlier work
# [13] = 1800 mg/day oral, one year, added to standard therapy; cited from earlier work
# [14] = tested on: TNFR1-mediated activation of NF-kappa B; settings: cited from earlier work
# [15] = tested on: TNFR2-mediated activation of NF-kappa B; settings: high concentrations; cited from earlier work
# [16] = in vivo; cited from earlier work
# [17] = tested on: late phase asthmatic response to allergen challenge; settings: cited from earlier work
# [18] = tested on: allergen-induced airways hyper-responsiveness; settings: cited from earlier work
# TNF-alpha = molecular target: T1, TNF-alpha (Mus musculus, UniProt P06804); settings: without inhibiting Teff activation; cited from earlier work
# T1 construct: host or cells: mouse, in vivo
# T1 sequence (P06804 80-235 limits assumed): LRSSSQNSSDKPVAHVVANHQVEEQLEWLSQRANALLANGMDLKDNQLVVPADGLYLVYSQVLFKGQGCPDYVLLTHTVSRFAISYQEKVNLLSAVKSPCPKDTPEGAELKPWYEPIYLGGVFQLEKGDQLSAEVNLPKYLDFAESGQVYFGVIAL
# TNF = type: in vivo, human; settings: for side effects of anti-TNF treatment in the patient: one patient with ankylosing spondylitis; for development of allergen-specific sIgG4 during specific immunotherapy: one vespid venom-allergic patient, SIT 2003-2009
# Source text: Case report from the Allergy Center of the Technical University of Munich (TUM), Germany. A patient (at the first visit in July 2003) with systemic vespid venom allergy was under anti-TNF therapy with the soluble TNF receptor etanercept (Enbrel®) for ankolysing spondylitis since July 2002 (see FIG. 9). In July/2003, the patient experienced a mild to moderate anaphylactic reaction (grade 1-2 according to Ring and Messmer) with generalized urticaria, subjective breathing problems and dizziness after a wasp sting.
# No sIgE was detectable against Ves v 2 and Ves v 3.
# Similar results were also obtained in the ELISA analysis, where sIgG4 levels were detectable already in 2003 before SIT mainly against Ves v 1 and Ves v 5, which decreased slightly over time during SIT.
# Discussion. […] Even amongst the group of SIT therapy failures/non-responders, we routinely observed an increase of sIgG4 levels to at least one allergen. Thus, this patient was the first and only one ever without any increase in sIgG4 to any of the vespid venom allergens. […] To our knowledge this was the only patient worldwide that received immunotherapy under anti-TNF inhibition treatment. Since there are several lines of evidence that TNFR2-mediated signaling is essential for the induction of tolerance, inhibition of TNFR2 appears to be responsible for the inhibitory effect of anti-TNF-alpha therapy on the efficacy of specific immunotherapy.
# C3 convertase = settings: cited from earlier work
compound,measurement,setting,value
"CC(=O)Oc1ccccc1C(=O)O [ASA, acetylsalicylic acid]",IC50,IL-4 gene transcription,~1000 µM
same,IC50,NF-kappa B translocation,~3000 µM
same,inhibition of IL-4 secretion,[1]; 1 mM ASA,47%
same,production of IFNγ,[1]; ASA 0.1 mM-3 mM,did not affect
same,production of IL-2,[1]; ASA 0.1 mM-3 mM,did not affect
same,production of IL-13,[1]; ASA 0.1 mM-3 mM,did not affect
"N[C@@H](CCC(=O)N[C@@H](CS)C(=O)NCC(=O)O)C(=O)O [GSH, glutathione]",reproduction of the effects of in vivo NAC treatment,"[2]; incubation 2-3 hours, 10 mmol/L",could not reproduce the effects of in vivo NAC treatment
"CSC[C@H](NC(=O)CC[C@H](N)C(=O)O)C(=O)NCC(=O)O [GSM, S-Methylglutathione]","reproduction of the effects of in vivo NAC treatment (glutathione repletion, unmasking of TNFR2-mediated effects)",[2]; incubation 2-3 hours,reproduce the effects of in vivo NAC treatment
same,protection against deleterious effects of TNF-alpha on contraction,[2],protected against the deleterious effects of TNF-alpha on contraction
same,solubility in water,[3],2.61 g/liter and 8.1 mM
"CC(=O)N[C@@H](CS)C(=O)O [NAC, N-acetyl-L-cysteine]",enhancement of IL-2 production by T cells,[4],approximately 1.5 fold
same,"GSH content of the left ventricle, % of control level in sham rats",left ventricle,75%
same,stimulation of growth of peripheral blood T cell cultures,[5],4-6 fold
same,IFNγ production by T cells,[6]; 0.5-20 mM NAC,not affected
same,IL-5 production by T cells,[6]; 0.5-20 mM NAC,not affected
same,IL-4 production by T cells,[6]; maximal at 20 mM NAC,decreased in a dose-dependent manner
same,IL-2 production by T cells,[6]; up to 5 mM NAC,enhanced
same,decrease of ovalbumin-specific IgE,[7]; drinking water 0.5 g/liter NAC,~30%
same,decrease of ovalbumin-specific IgG1,[7]; drinking water 0.5 g/liter NAC,~30%
same,synthesis of other Ig isotypes,[7]; drinking water 1 g NAC/liter,not significantly affected
same,IgE and IgG1 antibody responses to ovalbumin,"[7]; water containing 0.5-2.0 g/l NAC, 1 μg ovalbumin on aluminum hydroxide i.p.",decreased
same,median tmax,"[8]; human, in vivo",1.0 h
same,highest non-toxic dose,[8]; in most of the subjects,800 mg/m^2/day
same,plasma t1/2,[8]; monoexponential plasma decay,2.4 h
same,"GSH level in blood neutrophils, airway neutrophil count and elastase activity",[9],effective in augmenting the GSH level in blood neutrophils and decreasing the airway neutrophil count and elastase activity
same,IgE production by B cells,[10],decreased
same,IgG4 production by B cells,[10],decreased
same,"reproduction of the effects of in vivo NAC treatment (glutathione repletion, unmasking of TNFR2-mediated effects)",[2]; incubation 2-3 hours,could not reproduce the effects of in vivo NAC treatment
same,protection against deleterious effects of TNF-alpha on contraction,[2],not protected
same,increase in B cell proliferation,[11],at least 5 fold
same,cytotoxicity,resting T cells,nontoxic
same,increase in T cell proliferation,[12],approximately 4 fold
same,primary end points including vital capacity,[13],better
"O=C([O-])c1ccccc1O.[Na+] [SA, sodium salicylate]",salicylate dose required for inhibition of TNFR1-mediated activation of NF-kappa B,[14],10 to 20 mM
same,inhibition of TNFR2-mediated activation of NF-kappa B,[15],but not TNFR2-mediated activation of NF-kappa B
O=C(O)c1ccccc1O [salicylate],level at which tinnitus may occasionally occur,[16],≥ 95 µg/mL
IL-4 (R121D/Y124D),course of late asthmatic response after experimental allergen challenge,[17]; asthmatic patients,positively affect
same,adverse events,[17]; subcutaneous injection up to 30 mg for up to 13 weeks or inhalation up to 60 mg for up to 4 weeks,few adverse events
same,cutaneous wheal response and circulating allergen-specific IgE,[18]; subcutaneous administration for 6 weeks or more,reduced
same,allergen-induced airways hyper-responsiveness,[18]; subcutaneously or via nebulization,protect allergic cynomolgus monkeys from allergen-induced airways hyper-responsiveness
etanercept,Teff-mediated Treg boost,TNF-alpha,significantly reduced the Teff-mediated Treg boost
same,side effects of anti-TNF treatment in the patient,TNF,increasing iritis symptoms
same,development of allergen-specific sIgG4 during specific immunotherapy,TNF,interferes with the development of allergen-specific sIgG4
hC3: human complement component C3,half-life of C3 convertase,C3 convertase,1.5 min
infliximab,side effects of anti-TNF treatment in the patient,TNF,without major side effects
same,development of allergen-specific sIgG4 during specific immunotherapy,TNF,interferes with the development of allergen-specific sIgG4
